Measured values reported in patent US6531573B1, “Antifungal and antibacterial peptides” (Trustees of Boston University, priority 1997, dated 2003).

What was measured:
[1] = biological target: T1, Clostripain (Hathewaya histolytica, UniProt P09870); assay: Clostripain inhibition; type: biochemical; conditions: endopeptidase of Clostridium histolyticum
T1 construct: purchased Sigma Chemical Corp., St. Louis, Mo
Method: Clostripain from Clostridium histolyticum (Sigma Chemical Corp., St. Louis, Mo.) is dissolved in deionized water to a concentration of 1 mg/ml (300 units/mg) and activated with the addition of 10 mmol/L DTT. To measure its hydrolytic activity, clostripain ( 6 units) is added to […] Hepes buffer, pH 7.5, containing 80 μmol/L BAPNA (benzoyl-arginine-p-nitroanilide), together with 5.6 μmol/L of histatin peptide inhibitor. As controls, assays are performed in the absence of any histatin peptide inhibitor. The activity is monitored continuously at 405 nm using a Molecular Devices Vmax microtitre plate reader. The activities are determined from the maximum rates of substrate hydrolysis. Assays are done in duplicate, and the means normalized to the controls.

[2] = system: P. gingivalis 381; conditions: cited from earlier work

T1 sequence (P09870 191-526): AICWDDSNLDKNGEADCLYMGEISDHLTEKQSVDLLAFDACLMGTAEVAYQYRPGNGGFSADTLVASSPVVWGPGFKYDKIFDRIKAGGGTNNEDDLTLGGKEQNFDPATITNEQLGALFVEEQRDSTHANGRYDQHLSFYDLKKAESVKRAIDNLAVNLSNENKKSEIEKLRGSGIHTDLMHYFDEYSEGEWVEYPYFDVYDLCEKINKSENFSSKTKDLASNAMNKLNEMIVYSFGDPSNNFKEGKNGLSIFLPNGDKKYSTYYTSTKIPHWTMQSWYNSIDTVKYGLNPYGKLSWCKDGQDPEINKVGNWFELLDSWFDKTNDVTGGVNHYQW
T1 sequence (P09870 51-181): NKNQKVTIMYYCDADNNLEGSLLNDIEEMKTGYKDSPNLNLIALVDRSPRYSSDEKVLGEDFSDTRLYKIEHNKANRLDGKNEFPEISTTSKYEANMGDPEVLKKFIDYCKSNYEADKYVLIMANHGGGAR

## histatin 5
[1]
  inhibition of clostripain (in words): can be inhibited
[2]
  concentration giving complete hemagglutination inhibition: 5 nmol/mL
  inhibition of hemagglutination (in words): inhibit hemagglutination
